Measured values published in the NIST ThermoML archive (doi:10.1021/acs.jced.9b00442).

Key:
[1] = 100 kPa, Liquid; for electrical conductivity: Frequency=0.0006 MHz, Alternating current cell with electrodes; for viscosity: Concentric cylinders viscometry; for mass density: Vibrating tube method
[2] = refractive index (Na D-line) (dimensionless); settings: 100 kPa, Liquid, Standard Abbe refractometry

CCCC[N+](C)(C)CC.O=S(=O)([N-]S(=O)(=O)C(F)(F)F)C(F)(F)F
Settings	electrical conductivity [S/m]	mass density [kg/m3]	refractive index	viscosity [mPa·s]
[1], 283.15 K	0.082	–	–	–
[1], 288.15 K	0.11	1380.6	–	176.1
[1], 289.15 K	–	1379.7	–	–
[1], 290.15 K	–	1378.8	–	–
[1], 291.15 K	–	1377.9	–	–
[1], 292.15 K	–	1377	–	–
[1], 293.15 K	0.143	1376.1	–	132.4
[1], 294.15 K	–	1375.2	–	–
[1], 295.15 K	–	1374.3	–	–
[1], 296.15 K	–	1373.4	–	–
[1], 297.15 K	–	1372.5	–	–
[1], 298.15 K	0.182	1371.6	–	100.5
[1], 299.16 K	–	1370.8	–	–
[1], 300.16 K	–	1369.9	–	–
[1], 301.15 K	–	1369	–	–
[1], 302.15 K	–	1368.1	–	–
[1], 303.15 K	0.228	1367.2	–	78.4
[1], 304.15 K	–	1366.3	–	–
[1], 305.15 K	–	1365.4	–	–
[1], 306.15 K	–	1364.6	–	–
[1], 307.15 K	–	1363.7	–	–
[1], 308.15 K	0.279	1362.8	–	62.3
[1], 309.15 K	–	1361.9	–	–
[1], 310.15 K	–	1361.1	–	–
[1], 311.15 K	–	1360.2	–	–
[1], 312.15 K	–	1359.3	–	–
[1], 313.15 K	0.337	1358.4	–	50.9
[1], 314.15 K	–	1357.6	–	–
[1], 315.15 K	–	1356.7	–	–
[1], 316.15 K	–	1355.8	–	–
[1], 317.15 K	–	1355	–	–
[1], 318.15 K	0.401	1354.1	–	41.2
[1], 319.15 K	–	1353.2	–	–
[1], 320.15 K	–	1352.3	–	–
[1], 321.15 K	–	1351.5	–	–
[1], 322.15 K	–	1350.6	–	–
[1], 323.15 K	0.473	1349.7	–	34.2
[1], 324.15 K	–	1348.9	–	–
[1], 325.15 K	–	1348	–	–
[1], 326.15 K	–	1347.2	–	–
[1], 327.15 K	–	1346.3	–	–
[1], 328.15 K	–	1345.5	–	28.8
[1], 329.15 K	–	1344.6	–	–
[1], 330.15 K	–	1343.7	–	–
[1], 331.15 K	–	1342.9	–	–
[1], 332.15 K	–	1342	–	–
[1], 333.15 K	–	1341.2	–	24.8
[1], 334.15 K	–	1340.3	–	–
[1], 335.16 K	–	1339.5	–	–
[1], 336.15 K	–	1338.6	–	–
[1], 337.15 K	–	1337.8	–	–
[1], 338.15 K	–	1336.9	–	21
[1], 339.15 K	–	1336	–	–
[1], 340.15 K	–	1335.2	–	–
[1], 341.15 K	–	1334.3	–	–
[1], 342.15 K	–	1333.5	–	–
[1], 343.15 K	–	1332.6	–	18.2
[1], 344.15 K	–	1331.8	–	–
[1], 345.15 K	–	1330.9	–	–
[1], 346.15 K	–	1330.1	–	–
[1], 347.15 K	–	1329.2	–	–
[1], 348.15 K	–	1328.4	–	15.9
[1], 349.15 K	–	1327.5	–	–
[1], 350.15 K	–	1326.7	–	–
[1], 351.15 K	–	1325.9	–	–
[1], 352.15 K	–	1325	–	–
[1], 353.15 K	–	1324.2	–	14.2
[1], 354.15 K	–	1323.3	–	–
[1], 355.15 K	–	1322.5	–	–
[1], 356.15 K	–	1321.6	–	–
[1], 357.15 K	–	1320.8	–	–
[1], 358.15 K	–	1319.9	–	12.4
[1], 359.15 K	–	1319.1	–	–
[1], 360.15 K	–	1318.3	–	–
[1], 361.15 K	–	1317.4	–	–
[1], 362.16 K	–	1316.6	–	–
[1], 363.15 K	–	1315.7	–	11
[2], 283.15 K	–	–	1.4174	–
[2], 288.15 K	–	–	1.416	–
[2], 293.15 K	–	–	1.4147	–
[2], 298.15 K	–	–	1.4133	–
[2], 303.15 K	–	–	1.412	–
[2], 308.15 K	–	–	1.4106	–
[2], 313.15 K	–	–	1.4092	–
[2], 318.15 K	–	–	1.4078	–
[2], 323.15 K	–	–	1.4064	–
[2], 328.15 K	–	–	1.4051	–
[2], 333.15 K	–	–	1.4038	–
[2], 338.15 K	–	–	1.4024	–
[2], 343.15 K	–	–	1.4012	–
[2], 348.15 K	–	–	1.3998	–
[2], 353.15 K	–	–	1.3985	–
[2], 358.15 K	–	–	1.3973	–
